Assay results taken from patent US10668135B2, “Methods of treating or preventing periodontitis and diseases associated with periodontitis” (The Trustees of the University of Pennsylvania, priority 2012, dated 2020).
Entries after “also recorded” stand apart in the source; their conditions may differ.

How the values were obtained:
[1] = system: ligature-induced periodontitis; assay: Second NHP study: ligature-induced periodontitis, mandibular posterior teeth, split-mouth, four monkeys; type: in vivo, cynomolgus monkey; conditions: n=4 monkeys
Procedure: FIG. 6A, FIG. 6B, FIG. 6C, and FIG. 6D show measurements for probing pocket depth, gingival index, bleeding on probing, and mobility index, respectively, between Cp40 treated and control animals. Starting 3 days after initiation of ligature-induced periodontitis, Cp40 (500 μg) or control were injected locally into the mandibular interdental papillae from the 1st premolar to the 2nd molar, three times weekly, in opposites sides of the mouth (split-mouth design). The effects of Cp40 were determined on the indicated inflammatory clinical parameters at the indicated timepoints. In all animals, the gingival margin was at the cement-enamel junction, and thus, PPD readings equaled clinical attachment loss (CAL). Data are means±SD (n=4 monkeys). *, P<0.05; **, P<0.01 vs. control.
Specifically, levels of TNF-α (FIG. 7A), IL-1β (FIG. 7B), IL-6 (FIG. 7C), interleukin 8 (IL-8; FIG. 7D), IL-17A (FIG. 7E), interleukin 18 (IL-18; FIG. 7F), granulocyte colony-stimulating factor (G-CSF; FIG. 7G), RANKL (FIG. 7H), and OPG (FIG. 7I) were measured. At the same timepoints that clinical exams were performed (as per FIGS. 6A-6D), GCF was collected from the same monkeys (treatment details in FIGS. 6A-6D legend) using PERIOPAPER absorbent strips to assay the indicated cytokines. Total cytokine content in the eluted GCF samples was measured using MILLIPLEX MAP (multi-analyte panels) kits on a BIO-PLEX detection system. Data are means±SD (n=4 monkeys). *, P<0.05; **, P<0.01 vs. control.
FIGS. 8A-8C are graphs showing inhibition of periodontal bone loss following treatment of NHP periodontitis with Cp40. Four monkeys were treated as described in the legend to FIGS. 6A-6D, and their mandibular bone heights (CEJ-ABC distance) were measured using standardized X-ray images (taken at baseline and at week 6) and NIKON imaging system software. Measurements were made at six points (1st premolar, distal; 2nd premolar mesial & distal; 1st molar, mesial & distal; 2nd molar mesial) and the data in FIG. 8A and FIG. 8B reflect, respectively, the 6-site total at baseline (FIG. 8A) and at week 6 (FIG. 8B). For each control or Cp40 treatment, bone loss was calculated as bone height at baseline minus bone height at 6 weeks (FIG. 8C). The difference between Cp40 and control was significant (P<0.05; paired t test).
In a second NHP study, ligature-induced periodontitis was induced by placing ligatures around the mandibular posterior teeth (i.e., in the lower jaw) of the same two animals plus in two additional animals (total of four monkeys). The results obtained (FIGS. 6, 7, and 8) confirmed the results of the original study. Moreover, the presence of four animals allowed the possibility for statistical analysis.

[2] = system: ligature-induced periodontitis; assay: Initial NHP study: ligature-induced periodontitis, maxillary posterior teeth, split-mouth, 6 weeks, two animals; type: in vivo, cynomolgus monkey; conditions: for clinical inflammation (inflammatory clinical parameters: probing pocket depth, gingival index, bleeding on probing, mobility index): Cp40 500 μg injected locally into maxillary interdental papillae, from day 3, vs inactive analog on contralateral side, 6 weeks, FIG. 4; for levels of proinflammatory cytokines in the gingival crevicular fluid (GCF): FIG. 5; for numbers of osteoclasts (TRAP-positive multinucleated cells) in bone biopsy specimens / osteoclastogenesis: FIG. 5G
Procedure: FIG. 4A, FIG. 4B, FIG. 4C, and FIG. 4D show results for probing pocket depth, gingival index, bleeding on probing, and mobility index, respectively, which are measurements typically used to detect clinical periodontal inflammation and bone lose. FIG. 4E represents a radiograph measurement of bone height. Starting 3 days after initiation of ligature-induced periodontitis, Cp40 (500 μg) was injected locally into the maxillary interdental papillae from the 1st premolar to the 2nd molar, in two animals, three times weekly. […] Shown are the effects of Cp40 on the indicated inflammatory clinical parameters and bone heights, determined using standardized X-ray images (taken at week 6) and NIKON imaging system software. Specifically, the distance between the cement-enamel junction (CEJ) and alveolar bone crest (ABC) was measured at six points (1st premolar, distal; 2nd premolar mesial & distal; 1st molar, mesial & distal; 2nd molar mesial) and the data in Panel E reflect the 6-site total. The higher CEJ-ABC distance values of the controls as compared to those of Cp40 treatments signify increased bone loss in the absence of drug treatment. In all animals, the gingival margin was at the cement-enamel junction, and thus, PPD readings equaled clinical attachment loss (CAL).
Specifically, the panels show the relative protein levels for TNF (FIG. 5A), IL-1b (FIG. 5B), IL-6 (FIG. 5C), IL-17A (FIG. 5D), receptor activator of nuclear factor kappa-B ligand (RANKL; FIG. 5E), and osteoprotegerin (OPG; FIG. 5F). At the same timepoints that clinical exams were performed (as per FIGS. 4A-4E), GCF was collected from the same monkeys (treatment details in FIGS. 4A-4E legend) using PERIOPAPER absorbent strips to assay the indicated cytokines. Total cytokine content in the eluted GCF samples was measured using MILLIPLEX MAP (multi-analyte panels) kits on a BIO-PLEX detection system. In FIG. 5G, TRAP-positive multinucleated cells (osteoclasts) were enumerated in nine serial sections for each bone biopsy specimen taken between the 2nd premolar and 1st molar of each animal.
The cynomolgus monkey model is therefore considerably more predictive of drug efficacy in human periodontitis as compared to other, widely used preclinical animal models such as rodents. Moreover, the cynomolgus model of ligature-induced periodontitis allows longitudinal examination of the disease in a way that cannot be performed in humans.
Thus, each animal served as its own control. An initial study with a 6-week duration was conducted using two animals.

[3] = Cp40 500 μg local, three times weekly, vs inactive analog control

| Molecule | probing pocket depth (PPD), protective effect ([1]; Cp40 500 μg injected locally into mandibular interdental papillae, three times weekly, vs control, FIG. 6A) | inflammatory clinical parameters (overall) ([1]; Cp40 500 μg local mandibular, three times weekly, vs control, FIG. 6) | gingival index (GI), protective effect ([1]; Cp40 500 μg local mandibular, three times weekly, vs control, FIG. 6B) | GCF levels of proinflammatory cytokines (cytokine responses) ([1]; Cp40 500 μg local mandibular, three times weekly, vs control, FIG. 7) | periodontal bone loss (bone height at baseline minus bone height at 6 weeks, CEJ-ABC distance) ([1]; Cp40 500 μg local mandibular, three times weekly, vs control, P<0.05 paired t test, FIG. 8C) | GCF RANKL levels ([1]; Cp40 vs. control treatment, FIG. 7H) | GCF OPG levels ([1]; Cp40 vs. control treatment, FIG. 7I) | clinical inflammation (inflammatory clinical parameters: probing pocket depth, gingival index, bleeding on probing, mobility index) ([2]; three times weekly) | bone loss (radiographic bone height, CEJ-ABC distance, 6-site total) ([2]; Cp40 500 μg local, three times weekly, X-ray at week 6, vs inactive analog control, FIG. 4E) | levels of proinflammatory cytokines in the gingival crevicular fluid (GCF) [2, 3] | GCF levels of RANKL ([2]; Cp40 500 μg local, three times weekly, vs inactive analog control, FIG. 5E) | numbers of osteoclasts (TRAP-positive multinucleated cells) in bone biopsy specimens / osteoclastogenesis [2, 3] | GCF levels of osteoprotegerin (OPG) ([2]; Cp40-treated sites vs control sites during the course of the study, FIG. 5F) |
| --- | --- | --- | --- | --- | --- | --- | --- | --- | --- | --- | --- | --- | --- |
| dTyr-Ile-Cys*-Val-Trp(1Me)-Gln-Asp-Trp-Sar-Ala-His-Arg-Cys*-mIle-NH2 (YICVWQDWGAHRCI; D-Tyr, Trp(1Me), Sar, mIle, disulfide cyclisation, C-terminal amide; compstatin analog (Cp40); MOD_RES (1)..(1) D-Tyrosine; DISULFID (3)..(13) Cysteines joined via disulfide bridge.; MOD_RES (5)..(5) 1-methyl-tryptophan; MOD_RES (9)..(9) …ON, MeGly; MOD_RES (14)..(14) …ON; MOD_RES (14)..(14) AMIDATION) | reached statistical significance | significant inhibition of inflammatory clinical parameters | reached statistical significance | decreased GCF levels of proinflammatory cytokines; also recorded: reached statistical significance | significant inhibition of bone loss | decreased RANKL | increased OPG levels | decreases inflammatory clinical parameters | decreased bone loss | inhibits proinflammatory cytokine production | decreased GCF levels of RANKL | decreased osteoclastogenesis | maintained at higher levels |
| CC[C@H](C)[C@H](N)C(=O)N[C@H]1CSSC[C@@H](C(=O)N[C@H](C(N)=O)[C@@H](C)O)NC(=O)[C@H](CCCN=C(N)N)NC(=O)[C@H](Cc2cnc[nH]2)NC(=O)[C@H](Cc2cnc[nH]2)NC(=O)CNC(=O)[C@H](Cc2c[nH]c3ccccc23)NC(=O)[C@H](CC(=O)O)NC(=O)[C@H](CCC(N)=O)NC(=O)[C@H](C(C)C)NC(=O)[C@H](C(C)C)NC1=O [Compstatin, Ile-Cys*-Val-Val-Gln-Asp-Trp-Gly-His-His-Arg-Cys*-Thr] |  |  |  |  |  |  |  | decreased clinical inflammation |  | reduced levels of proinflammatory cytokines |  | lower numbers of osteoclasts |  |
